Results from US20040092428A1, “Oral pharmaceuticals formulation comprising paclitaxel, derivatives and methods of administration thereof” (priority 2001, published 2004).

Target: P-glycoprotein (Homo sapiens, UniProt P08183)
Method: P-glycoprotein inhibition has been determined with an in vitro assay. […] Therefore, the initial pool of compounds screened included excipients that were acceptable for oral or IV use and included PEG in the chemical structure. Compounds were first screened for toxicity in the NIH3T3 cell line and then tested for P-gp inhibition with paclitaxel using the protocol outlined below:
Day 0: Seed cells and incubate.
Day 1: Add potential P-gp inhibitor at fixed concentration and paclitaxel at various concentrations and incubate for 2 days.
Day 3: Add MTT and extraction/lysis buffer.
Day 4: Read absorbance to measure cell growth. Calculate IC50 to determine amount of paclitaxel required for cell death
After calculations of IC50 values, relative rank order of the compounds were determined.

Chain of P-glycoprotein (P08183 whole entry): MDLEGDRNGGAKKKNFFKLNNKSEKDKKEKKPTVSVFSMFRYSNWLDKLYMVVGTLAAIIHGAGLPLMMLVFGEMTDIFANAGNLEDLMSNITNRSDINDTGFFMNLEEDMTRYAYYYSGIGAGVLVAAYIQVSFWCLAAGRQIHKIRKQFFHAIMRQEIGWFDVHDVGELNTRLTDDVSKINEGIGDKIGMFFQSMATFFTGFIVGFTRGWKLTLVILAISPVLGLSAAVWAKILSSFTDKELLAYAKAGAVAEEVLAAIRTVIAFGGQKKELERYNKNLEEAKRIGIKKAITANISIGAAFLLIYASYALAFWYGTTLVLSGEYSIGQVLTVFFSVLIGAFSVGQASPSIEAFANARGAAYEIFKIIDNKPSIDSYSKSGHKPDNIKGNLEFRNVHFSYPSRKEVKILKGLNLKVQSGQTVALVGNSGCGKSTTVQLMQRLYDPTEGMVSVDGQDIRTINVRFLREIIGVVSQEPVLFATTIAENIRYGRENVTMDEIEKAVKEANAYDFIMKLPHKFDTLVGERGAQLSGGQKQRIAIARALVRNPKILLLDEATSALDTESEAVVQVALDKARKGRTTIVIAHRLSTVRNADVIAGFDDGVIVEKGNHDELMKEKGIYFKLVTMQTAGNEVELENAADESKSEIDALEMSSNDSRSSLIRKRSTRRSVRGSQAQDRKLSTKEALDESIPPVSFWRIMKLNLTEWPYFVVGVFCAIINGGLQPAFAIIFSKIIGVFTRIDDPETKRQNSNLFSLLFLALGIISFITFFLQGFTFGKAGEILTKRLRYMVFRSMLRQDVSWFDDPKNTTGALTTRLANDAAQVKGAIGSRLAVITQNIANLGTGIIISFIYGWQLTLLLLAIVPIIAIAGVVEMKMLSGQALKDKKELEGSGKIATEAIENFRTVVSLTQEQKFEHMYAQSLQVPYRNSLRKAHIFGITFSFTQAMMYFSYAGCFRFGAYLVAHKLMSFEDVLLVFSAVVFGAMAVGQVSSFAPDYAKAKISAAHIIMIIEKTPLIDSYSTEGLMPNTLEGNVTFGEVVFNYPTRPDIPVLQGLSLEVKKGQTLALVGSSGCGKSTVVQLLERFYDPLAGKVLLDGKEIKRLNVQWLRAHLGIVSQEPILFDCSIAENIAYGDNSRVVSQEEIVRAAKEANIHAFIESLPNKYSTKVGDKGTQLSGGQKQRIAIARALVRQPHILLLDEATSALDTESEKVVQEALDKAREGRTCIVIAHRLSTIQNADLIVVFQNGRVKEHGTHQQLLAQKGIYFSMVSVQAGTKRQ

## PEG-100 stearate
  P-gp inhibition measured by an IC50 ratio: > 1.0

## polysorbate 80
  P-gp inhibition measured by an IC50 ratio: > 1.0
